The source of these data is patent publication US11439622B2 (OXFORD UNIVERSITY INNOVATION LIMITED, priority 2015, dated 2022).

Common to all, as to type: biochemical
In assay [1] the target is VIM-2 (Veronese metallo-β-lactamase-2) (Escherichia coli, UniProt Q5U7L7). Put plainly: Enzyme inhibition assay, VIM-2. The note with it: for IC50: read-out: pIC50 VIM-2 (converted). As for the experimental part:
(§1) The biological activity of the compounds of the present invention was tested using standard assay protocols.^7 The following representative enzymes NDM-1 (New Delhi metallo-β-lactamase-1), IMP-1 (Imipenemase-1) and VIM-2 (Veronese metallo-β-lactamase-2) were selected from different clinically relevant B1 metallo-β-lactamases.

In a further assay the target is IMP-1 (Imipenemase-1) (Serratia marcescens, UniProt P52699). The experiment in a line: Enzyme inhibition assay, IMP-1. The note with it: for IC50: read-out: pIC50 IMP-1 (converted). As for the experimental part: as §1
For assay [2], the target named is NDM-1 (New Delhi metallo-β-lactamase-1) (Klebsiella pneumoniae, UniProt C7C422). The experiment in a line: Enzyme inhibition assay, NDM-1. The note with it: for IC50: read-out: pIC50 NDM-1 (converted). The method, then:
as §1

NDM-1 (New Delhi metallo-β-lactamase-1), sequence (C7C422 29-270, looked up, species assumed): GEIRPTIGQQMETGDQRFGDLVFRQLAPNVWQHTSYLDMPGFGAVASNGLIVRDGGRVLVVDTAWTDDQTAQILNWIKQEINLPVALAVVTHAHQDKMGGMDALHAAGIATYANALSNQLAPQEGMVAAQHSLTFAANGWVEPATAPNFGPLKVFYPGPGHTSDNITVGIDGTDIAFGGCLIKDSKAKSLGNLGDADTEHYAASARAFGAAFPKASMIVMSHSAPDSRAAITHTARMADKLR
IMP-1 (Imipenemase-1), sequence (P52699 19-246, looked up, species assumed): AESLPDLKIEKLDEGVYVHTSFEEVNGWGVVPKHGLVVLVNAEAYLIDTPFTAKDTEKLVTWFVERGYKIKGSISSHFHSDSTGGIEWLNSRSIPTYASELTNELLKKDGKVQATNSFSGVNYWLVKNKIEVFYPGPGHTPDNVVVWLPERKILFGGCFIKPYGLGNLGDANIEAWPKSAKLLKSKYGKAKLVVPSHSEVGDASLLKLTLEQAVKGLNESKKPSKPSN

As to `Cc1cccc2c(-c3cccc(C(F)(F)F)c3)c(C(=O)O)[nH]c12` [Example 44, 7-methyl-3-(3-(trifluoromethyl)phenyl)-1H-indole-2-carboxylic acid], the IC50 in assay [1] was 200 nM; on IMP-1 (Imipenemase-1), 3980 nM; in assay [2], 31.6 nM.

As for `Cc1cccc2c(C3CCCCC3)c(C(=O)O)[nH]c12` [Example 103], the IC50 in assay [1] is 3160 nM; at IMP-1 (Imipenemase-1), 79400 nM; in assay [2], 79.4 nM.

On to `Cc1cccc2c(-c3cnn(C)c3)c(C(=O)O)[nH]c12` [Example 26, 7-methyl-3-(1-methyl-1H-pyrazol-4-yl)-1H-indole-2-carboxylic acid], for which the results for the IC50 (in assay [1]; on IMP-1 (Imipenemase-1); in assay [2]) were 2510 nM, 39800 nM and 100 nM, respectively.

In the case of `CN(C)C(=O)c1ccc(-c2c(C(=O)O)[nH]c3c(CCOc4ccccc4)cccc23)cc1` [Example 83, 3-(4-(dimethylcarbamoyl)phenyl)-7-(2-phenoxyethyl)-1H-indole-2-carboxylic acid], the IC50 in assay [1] was 100 nM; at IMP-1 (Imipenemase-1), 63.1 nM; in assay [2] it was 3.98 nM.

For the molecule `CC(C)c1cccc2c(-c3ccc(S(=O)(=O)N(C)C)cc3)c(C(=O)Nc3ccccc3)[nH]c12` [Example 127, 3-(4-(N,N-dimethylsulfamoyl)phenyl)-7-isopropyl-N-phenyl-1H-indole-2-carboxamide], the “pIC50 VIM-2” value in assay [1] was “N.I”. In addition, on IMP-1 (Imipenemase-1), the “pIC50 IMP-1” value is “N.I”. Also, the IC50 in assay [2] is 398 nM.

Take `Cc1cccc2c(-c3cccc([N+](=O)[O-])c3)c(C(=O)O)[nH]c12` [Example 15, 7-methyl-3-(3-nitrophenyl)-1H-indole-2-carboxylic acid]: the IC50 in assay [1] was 126 nM; on IMP-1 (Imipenemase-1), 15800 nM; in assay [2] it was 25.1 nM.

On to `Cc1cccc2c(-c3ccc(C(N)=O)cc3)c(C(=O)O)[nH]c12` [Example 5, 3-(4-carbamoylphenyl)-7-methyl-1H-indole-2-carboxylic acid], for which the IC50 in assay [1] is 100 nM; on IMP-1 (Imipenemase-1), 7940 nM; in assay [2] it was 31.6 nM.

Turning to `Cc1cccc2c(Cc3ccc(Cl)cc3)c(C(=O)O)[nH]c12` [Example 107, 3-[(4-chlorophenyl)methyl]-7-methyl-1H-indole-2-carboxylic acid], the results for the IC50 (in assay [1]; at IMP-1 (Imipenemase-1); in assay [2]) were 1580 nM, 3980 nM and 631 nM, respectively.

For the molecule `COCCc1cccc2c(-c3ccc(F)cc3)c(C(=O)O)[nH]c12` [Example 61, 3-(4-fluorophenyl)-7-(2-methoxyethyl)-1H-indole-2-carboxylic acid], the IC50 is 316 nM in assay [1], 1260 nM on IMP-1 (Imipenemase-1) and 31.6 nM in assay [2].

Take `Cc1ccc2c(-c3ccc(F)cc3)c(C(=O)O)[nH]c2c1` [Example 119, 3-(4-fluorophenyl)-6-methyl-1H-indole-2-carboxylic acid]: the values for the IC50 (in assay [1]; on IMP-1 (Imipenemase-1); in assay [2]) were 15800 nM, 79400 nM and 2000 nM, respectively.

For `O=C(O)c1[nH]c2c(CCOc3ccccc3)cccc2c1-c1ccc(Cl)cc1` [Example 84, 3-(4-chlorophenyl)-7-(2-phenoxyethyl)-1H-indole-2-carboxylic acid], the IC50 is 20 nM in assay [1], 631 nM on IMP-1 (Imipenemase-1) and 37.2 nM in assay [2].

On to `Cc1cccc2c1cc(C(=O)O)n2-c1ccc(F)cc1` [Example 120, 1-(4-fluorophenyl)-4-methyl-1H-indole-2-carboxylic acid], for which the IC50 is 31600 nM in assay [1], > 100000 nM at IMP-1 (Imipenemase-1) and > 20000 nM in assay [2].

For `Cc1cccc2c(-c3ccc(S(=O)(=O)N(C)C)cc3)c(C(=O)O)[nH]c12` [Example 29, 3-(4-(N,N-dimethylsulfamoyl)phenyl)-7-methyl-1H-indole-2-carboxylic acid], the IC50 in assay [1] was 251 nM; at IMP-1 (Imipenemase-1) it was 794 nM; in assay [2] it was 5.01 nM.

Consider `Cc1cccc2c(-c3ccc([N+](=O)[O-])cc3)c(C(=O)O)[nH]c12` [Example 8, 7-methyl-3-(4-nitrophenyl)-1H-indole-2-carboxylic acid], for which the IC50 in assay [1] is 251 nM; on IMP-1 (Imipenemase-1), 25100 nM; in assay [2], 79.4 nM.

Consider `Cc1ccc2c(-c3ccc(S(N)(=O)=O)cc3)c(C(=O)O)[nH]c2c1` [Example 47, 6-methyl-3-(4-sulfamoylphenyl)-1H-indole-2-carboxylic acid], for which the IC50 is 7940 nM in assay [1], 50100 nM at IMP-1 (Imipenemase-1) and 398 nM in assay [2].

In the case of `Cc1cccc2c(-c3ccn4ncnc4c3)c(C(=O)O)[nH]c12` [Example 21, 3-([1,2,4]triazolo[1,5-a]pyridin-7-yl)-7-methyl-1H-indole-2-carboxylic acid], the values for the IC50 (in assay [1]; at IMP-1 (Imipenemase-1); in assay [2]) were 126 nM, > 100000 nM and 126 nM, respectively.

`CN(C)S(=O)(=O)c1ccc(-c2c(C(=O)O)[nH]c3c(CCOc4ccccc4)cccc23)cc1` [Example 81, 3-(4-(N,N-dimethylsulfamoyl)phenyl)-7-(2-phenoxyethyl)-1H-indole-2-carboxylic acid]: the figures for the IC50 (in assay [1]; on IMP-1 (Imipenemase-1); in assay [2]) were 63.1 nM, 100 nM and 1.58 nM, respectively.

Consider `Cc1cccc2c(-c3ccc(C4CC4)cc3)c(C(=O)O)[nH]c12` [Example 45, 3-(4-cyclopropylphenyl)-7-methyl-1H-indole-2-carboxylic acid], for which the IC50 in assay [1] was 316 nM; on IMP-1 (Imipenemase-1), 3980 nM; in assay [2], 31.6 nM.

Consider `CC(C)c1cccc2c(-c3ccc(S(=O)(=O)N(C)C)cc3)c(C(=O)Nc3nccs3)[nH]c12` [Example 124, 3-(4-(N,N-dimethylsulfamoyl)phenyl)-7-isopropyl-N-(thiazol-2-yl)-1H-indole-2-carboxamide], for which the “pIC50 VIM-2” value in assay [1] is given as “N.I”. The “pIC50 IMP-1” value on IMP-1 (Imipenemase-1) is reported as “N.I”. In assay [2], the “pIC50 NDM-1” value is recorded as “N.I”.

As to `CC(C)c1cccc2c(-c3ccc(CN4CCOCC4)cc3)c(C(=O)O)[nH]c12` [Example 94, 7-isopropyl-3-(4-(morpholinomethyl)phenyl)-1H-indole-2-carboxylic acid], the IC50 is 105 nM in assay [1], 105 nM on IMP-1 (Imipenemase-1) and 5.89 nM in assay [2].

As for `Cc1cccc2c(C3=CCN(C(=O)OC(C)(C)C)CC3)c(C(=O)O)[nH]c12` [Example 25, 3-(1-(tert-butoxycarbonyl)-1,2,3,6-tetrahydropyridin-4-yl)-7-methyl-1H-indole-2-carboxylic acid], the IC50 is 2000 nM in assay [1], 5010 nM on IMP-1 (Imipenemase-1) and 31.6 nM in assay [2].

In the case of `Cc1cc(F)cc2c(-c3ccc(F)cc3)c(C(=O)O)[nH]c12` [Example 58, 5-fluoro-3-(4-fluorophenyl)-7-methyl-1H-indole-2-carboxylic acid], the IC50 in assay [1] is 794 nM; at IMP-1 (Imipenemase-1), 15800 nM; in assay [2], 31.6 nM.

On to `Cc1cccc2c(-c3ccc4cn[nH]c4c3)c(C(=O)O)[nH]c12` [Example 32, 3-(1H-indazol-6-yl)-7-methyl-1H-indole-2-carboxylic acid], for which the IC50 in assay [1] is 79.4 nM; at IMP-1 (Imipenemase-1) it was 12600 nM; in assay [2], 25.1 nM.

On to `CC(C)c1cccc2c(-c3ccc(S(=O)(=O)N(C)C)cc3)c(-c3nnn[nH]3)[nH]c12` [Example 102, 4-[7-isopropyl-2-(1H-tetrazol-5-yl)-1H-indol-3-yl]-N,N-dimethyl-benzenesulfonamide], for which the values for the IC50 (in assay [1]; on IMP-1 (Imipenemase-1); in assay [2]) were 407 nM, 13200 nM and 10 nM, respectively.

As to `Cc1cccc2c(-c3ccc(C(F)(F)F)cc3)c(C(=O)O)[nH]c12` [Example 11, 7-methyl-3-(4-(trifluoromethyl)phenyl)-1H-indole-2-carboxylic acid], the IC50 is 316 nM in assay [1], 12600 nM at IMP-1 (Imipenemase-1) and 31.6 nM in assay [2].

Regarding `CC(C)c1cccc2c(-c3ccc(N4CCOCC4)cc3)c(C(=O)O)[nH]c12` [Example 70, 7-isopropyl-3-(4-morpholinophenyl)-1H-indole-2-carboxylic acid], the figures for the IC50 (in assay [1]; at IMP-1 (Imipenemase-1); in assay [2]) were 79.4 nM, 10 nM and 2.51 nM, respectively.

Take `Cc1cccc2c(-c3ccc(Cl)c(C(F)(F)F)c3)c(C(=O)O)[nH]c12` [Example 43, 3-(4-chloro-3-(trifluoromethyl)phenyl)-7-methyl-1H-indole-2-carboxylic acid]: the IC50 in assay [1] is 158 nM; at IMP-1 (Imipenemase-1) it was 12600 nM; in assay [2], 31.6 nM.

For `COc1cccc(-c2c(C(=O)O)[nH]c3c(C(C)C)cccc23)c1OC` [Example 77, 3-(2,3-dimethoxyphenyl)-7-isopropyl-1H-indole-2-carboxylic acid], the IC50 in assay [1] was 6.31 nM; on IMP-1 (Imipenemase-1), 12600 nM; in assay [2], 200 nM.

For `CC(C)c1cccc2c(-c3ccccc3)c(C(=O)O)[nH]c12` [Example 66, 7-isopropyl-3-phenyl-1H-indole-2-carboxylic acid], the IC50 in assay [1] is 31.6 nM; at IMP-1 (Imipenemase-1), 31.6 nM; in assay [2] it was 5.01 nM.

On to `Cc1c(Oc2ccccc2)ccc2c(-c3ccc(Cl)cc3)c(C(=O)O)[nH]c12` [Example 85, 3-(4-chlorophenyl)-7-methyl-6-phenoxy-1H-indole-2-carboxylic acid], for which the IC50 is 158 nM in assay [1], 1000 nM at IMP-1 (Imipenemase-1) and 100 nM in assay [2].

On to `CC(C)(C)c1cccc2c(-c3ccc(F)cc3)c(C(=O)O)[nH]c12` [Example 57, 7-(tert-butyl)-3-(4-fluorophenyl)-1H-indole-2-carboxylic acid], for which the figures for the IC50 (in assay [1]; at IMP-1 (Imipenemase-1); in assay [2]) were 100 nM, 100 nM and 79.4 nM, respectively.

With `Cc1cccc2c(-c3ccccc3)c(C(=O)O)[nH]c12` [Example 37, 7-methyl-3-phenyl-1H-indole-2-carboxylate], the figures for the IC50 (in assay [1]; on IMP-1 (Imipenemase-1); in assay [2]) were 398 nM, 10000 nM and 31.6 nM, respectively.
